According to patent US5840699A, “Peptide derivatives” (Teikoku Hormone Mfg. Co. Ltd., priority 1995, dated 1998):

System: mouse leukemia P388 cells
Test: Antitumor activity (increase in life-span) in mice transplanted with mouse leukemia P388 cells
Type: in vivo
Conditions: relative value of percent increase in life-span (ILS), dolastatin 10 ILS regarded as 1; P388 cells (10^6 per mouse) in abdominal cavity of CDF1 mice; drug intraperitoneally on first and fifth day; observed for 60 days
Procedure: 0.1 ml (10^6 cells per mouse) each of mouse leukemia P388 cells was transplanted into the abdominal cavity of 7-weeks-old CDF1 mice. […] Then, the percent increase in life-span (ILS) was calculated from the results of observation according to the following equation. In the following equation, T designates the median number of days for which the mice of the drug-treated group survived, and C designates the median number of days for which the mice of the control group survived. [formula]
The antitumor activity of each drug is expressed as a relative value based on the antitumor activity of dolastatin 10 for which ILS is regarded as 1.

Substance: dolastatin 10
- Antitumor activity: 1
